The SangsterLogP compilation

Assay: method code SF-AS, from DOI: 10.1002/hlca.19830660215
Details: for logD: pH 11.0

SMILES	logD	logP
NCCCNC(=O)c1ccccc1	0.3	–
CCN(CC)CCCNC(=O)c1ccccc1	1.56	–
NCCNC(=O)c1ccccc1	0.06	–
COc1ccccc1C(=O)NCCN(C)C	–	1.14
COc1ccccc1C(=O)N1CCN(C)CC1	–	0.29
NCCCCNC(=O)c1ccccc1	0.58	–
CN(C)CCNC(=O)c1ccccc1	–	1.1
CCN(CC)CCNC(=O)c1ccccc1	1.84	–
COc1ccccc1C(=O)NCCCCN	0.58	–

Other lines, results leading:

logD	logP	SMILES
–	1.76	CCN(CC)CCCNC(=O)c1ccccc1OC
1.27	–	CN(C)CCCNC(=O)c1ccccc1
–	1.98	CCN(CC)CCNC(=O)c1ccccc1OC
–	1.27	COc1ccccc1C(=O)NCCCN(C)C
–	0	COc1ccccc1C(=O)NCCN
